Laboratory results: patent publication US6472541B2, “Protecting groups with increased photosensitivities” (The Regents of the University of California, priority 1998, dated 2002)

Assays:
Type in all cases: physicochemical
[1] = Hydrolysis in the dark (dark stability); details: buffered solution, read-out: t0.5 Half-life for hydrolysis in the dark (converted)
Procedure: (§1) The electronic absorption and emission properties of the compounds were measured and the stability of the compounds toward hydrolysis in the dark was tested. Stability in the dark can be used to help identify photolabile protecting groups that can be used in a variety of different conditions. Specifically, the quantum efficiencies for one-photon excitation and rates of hydrolysis in the dark were determined.
The photolysis quantum efficiencies for one-photon excitation were determined by irradiating a buffered solution of the substrate with 365 nm ultraviolet light from a B-100 mercury lamp (Spectronics Corp., Westbury, N.Y.). The duration of each irradiation period was controlled by an electronic shutter. Between each irradiation, a small aliquot (10 μL) of the solution was removed for analysis by reversed phase HPLC with a Betabasic-18 column eluted with a isocratic mixture of 60% acetonitrile and water containing 0.1% trifluoracetic acid at a flow rate of 0.8 mL/min, using absorbance detection at 325 nm. Optical densities at 365 nm were maintained near 0.1 so that inner-filtering of the irradiation could be neglected. […] Quantum efficiencies were calculated as (Iσt90%)^−1, where I is the irradiation intensity in einsteins (cm^−2s^−1), σ is the decadic extinction coefficient in cm^2mol^−1 (10^3 times ε, the usual extinction coefficient in M^−1cm^−1), and t90% is the irradiation time in seconds for 90% conversion to product. The total UV intensity, I, was measured by chemical actinometry with 6 mM potassium ferrioxalate in the same setup. Dark hydrolysis rates were measured similarly except without illumination.

[2] = Electronic absorption and emission properties; details: for λmax Wavelength of peak absorbance: pH 7.2; for ε Molar absorptivity at absorbance peak: pH 7.2, at absorbance peak
Procedure: Generally, chemicals and solvents were used directly as received unless otherwise noted. Acetonitrile, chloroform and dichloromethane were dried over 4A molecular sieves. Proton magnetic resonance spectra (^1H NMR) were recorded on a Gemini 200 MHz spectrometer (Varian; Palo Alto, Calif.) and reported in ppm (δ) downfield from tetramethylsilane with residual solvent peaks as the internal standards. Ultraviolet spectra were recorded on a Cary 3E UV-Visible spectrophotometer (Varian, Palo Alto, Calif., USA). Fluorescence spectra were recorded on a Fluorolog spectrofluorometer (SPEX; Edison, N.J., USA). Mass spectra were recorded on a electrospray mass spectrometer (5989B, Hewlett-Packard; Palo Alto, Calif., USA). Thin layer chromatography (TLC) and column chromatography were performed on precoated silica gel 60F-254 plates and 230-400 mesh silica gel 60 respectively (EM Separations; Gibbstown, N.J., USA). All manipulations of compounds sensitive to near ultraviolet light were performed under an orange safety lamp.
as §1

[3] = One-photon photolysis quantum efficiency (UV irradiation, HPLC analysis)
Procedure: as §1
[…] The duration of each irradiation period was controlled by an electronic shutter. Between each irradiation, a small aliquot (10 μL) of the solution was removed for analysis by reversed phase HPLC with a Betabasic-18 column eluted with a isocratic mixture of 60% acetonitrile and water containing 0.1% trifluoracetic acid at a flow rate of 0.8 mL/min, using absorbance detection at 325 nm. […] […] Quantum efficiencies were calculated as (Iσt90%)^−1, where I is the irradiation intensity in einsteins (cm^−2s^−1), σ is the decadic extinction coefficient in cm^2mol^−1 (10^3 times ε, the usual extinction coefficient in M^−1cm^−1), and t90% is the irradiation time in seconds for 90% conversion to product. […] Dark hydrolysis rates were measured similarly except without illumination.

[4] = In vitro measurements of two-photon uncaging and fluorescence cross-sections; details: pH 7.2
Procedure: Measurements of cross-sections for two-photon uncaging were carried out in microcuvettes with cylindrical cavities having a 1 cm path length and 20 μL total volume (Type 26F, Starna). Femtosecond infrared pulses from a mode-locked titanium-sapphire laser (Spectra-Physics TSUNAMI, pumped by a Spectra-Physics MILLENNIUM) were aimed along the axis of the sample chamber and focused in its center with a 25 mm focal length lens (06LXP003/076, Melles Griot, Irvine, Calif.) optimized for infrared lasers. The pulse parameters were estimated by replacing the caged compound by a solution of fluorescein, a reference compound of known fluorescence quantum yield Qf2 (0.9) and two-photon absorbance cross-section δaF (30 and 38 GM at 740 and 800 nm respectively). The time-averaged fluorescence <F(t)>collected by the detector is given by equation (1)
<F(t)>=0.5φQf2δaFCF<I0^2(t)>∫S^2(r)dV (1)
where φ is the collection efficiency of the detector, CF is the concentration of fluorescein, <I0^2(t)> is the mean squared light intensity, S(r) is a unitless spatial distribution function, and the integral is over the volume of the microcuvette. The fluorescence emitted at right angles to the laser beam was measured through a 535 nm bandpass filter in front of a silicon photodiode radiometer (IL1700, International Light). The collection efficiency φ was estimated as Ay/(4πR^2n^2), where A is the area of the detector (0.38 cm^2), y is the fraction of the integrated emission spectrum transmitted by the interference filter (0.377), measured separately in a spectrofluorometer, R is the distance from the center of the cuvette to the detector (3.83 cm), and n is the refractive index of water (1.333). For photolysis of a caged compound or substrate, the number NP of molecules of product formed per unit time is (eq. 2):
NP=0.5Qu2δaSCS<I0^2(t)>∫S^2(r)dV (2)
where Qu2, δaS, and CS are the quantum efficiency for two-photon uncaging, absorbance cross-section, and concentration of the substrate, respectively. NP was measured by HPLC sampling of the microcuvette as for the one-photon photolysis. The uncaging action cross-section δu2 (≡Qu2δaS) can therefore be estimated by (eq. 3): [formula]
Similarly, when the substrate is also fluorescent, its two-photon fluorescence action cross-section δf2S (≡Qf2SδaS) can be estimated as (eq. 4): [formula]
Here the subscripts S and F distinguish values for the substrate and for the fluorescein reference. If one assumes that one- and two-photon quantum efficiencies are the same, then δu2/Qu1 and δf2S/Qf1S should both equal δaS. In fact, the former values are typically about twice the latter. All of them are directly proportional to the assumed value of Qf2 for fluorescein.

[5] = Mechanism of photolysis (triplet state lifetime)
Excerpt: The halogenated coumarin derivatives have good dark stability, and high one-photon and two-photon uncaging efficiencies. Without being bound to any particular theory, halogenation of the coumarin may have increased the two-photon cross-sections by lowering the pKa of the chromophore below physiological pH and promoting formation of the more strongly absorbing anion. Also, the heavy atoms may promote intersystem crossing to the triplet, which is believed to be the photochemically reactive state. […] The mechanism of photolysis of compound 7 and compound 23 indicate that the solvolysis occurs via the triplet state with a lifetime of about 1 μs. […] Although compound 6 had the highest cross-section, its photolysis was complicated by multiple secondary photoproducts. The monobromo compound (compound 5) was much more tractable and easily formed caged compounds.

[6] = 515 nm rather than 365 nm (footnote g)

| SMILES | half-life [1] [h] | Qf1 Quantum efficiency for fluorescence with one-photon excitation [2] | λem [2] [nm] | ε Molar Absorptivity at 365 nm [2] | ε Molar Absorptivity at 400 nm [2] | λmax Wavelength of peak absorbance [2] [nm] | ε Molar absorptivity at absorbance peak [2] | Qu1 Quantum efficiency for uncaging with one-photon excitation at 365 nm [3] | εQu1 One-photon action cross section (product of molar absorptivity and photolysis quantum yield) at 365 nm [3] [M⁻¹ cm⁻¹] | δf (740 nm) fluorescence action cross-section for two-photon excitation [4] | δu (740 nm) uncaging action cross-section for two-photon excitation [4] | δf (800 nm) fluorescence action cross-section for two-photon excitation [4] | δu (800 nm) uncaging action cross-section for two-photon excitation [4] | ε Molar Absorptivity (measured at 515 nm) [2, 6] | Qu1 Quantum efficiency for uncaging with one-photon excitation (measured at 515 nm) [3, 6] | εQu1 One-photon action cross section (ε and Qu1 measured at 515 nm) [3, 6] | Lifetime of triplet state through which solvolysis occurs [5] |
| --- | --- | --- | --- | --- | --- | --- | --- | --- | --- | --- | --- | --- | --- | --- | --- | --- | --- |
| CC(=O)OCc1cc(=O)oc2cc(O)c(Cl)cc12 [Compound 4, 6-Chloro-7-hydroxycoumarin-4-ylmethyl acetate] | 228 | 0.37 | 474 | 15,900 M^−1cm^−1 | 5,000 M^−1cm^−1 | 370 | 16,000 M^−1cm^−1 | 0.019 | 302 | 9.68 ± 10^−50 cm^4s/photon | 1.07 ± 10^−50 cm^4s/photon | 3.22 ± 10^−50 cm^4s/photon | 0.34 ± 10^−50 cm^4s/photon |  |  |  |  |
| CC(=O)OCc1c(Br)c(=O)oc2c(Br)c(O)c(Br)cc12 [Compound 6, 3,6,8-Tribromo-7-hydroxycoumarin-4-ylmethyl acetate] | 218 | 0.16 | 498 | 9,700 M^−1cm^−1 | 15,700 M^−1cm^−1 | 397 | 15,900 M^−1cm^−1 | 0.065 | 630 |  | 0.96 ± 10^−50 cm^4s/photon |  | 3.1 ± 10^−50 cm^4s/photon |  |  |  |  |
| O=c1ccc2c(CCl)c3ccc(O)cc3oc-2c1 [Compound 9] |  |  | 538 |  |  |  |  |  |  |  | 1.6 10^−50 cm^4s/photon | 68 10^−50 cm^4s/photon | 2.6 10^−50 cm^4s/photon | 41,200 M^−1cm^−1 | 0.038 | 1,565 M^−1cm^−1 |  |
| N[C@@H](CCC(=O)OCc1cc(=O)oc2cc(O)c(Br)cc12)C(=O)O [Compound 8, γ-(6-Bromo-7-hydroxycoumarin-4-yl)methyl glutamate] |  |  |  | 19,200 M^−1cm^−1 | 7,560 M^−1cm^−1 | 369 | 19,550 M^−1cm^−1 | 0.019 | 364 |  | 0.89 ± 10^−50 cm^4s/photon |  | 0.42 ± 10^−50 cm^4s/photon |  |  |  |  |
| COc1cc(COC(=O)CCC(N)C(=O)O)c([N+](=O)[O-])cc1OC (centres unmarked) [Compound 2, reference compound] |  |  |  | 7,300 M^−1cm^−1 | 1,570 M^−1cm^−1 | 345 | 8,860 M^−1cm^−1 | 0.004 | 29 |  |  |  |  |  |  |  |  |
| CC(=O)OCc1cc(=O)oc2cc(O)c(Br)cc12 [Compound 5, 6-Bromo-7-hydroxycoumarin-4-ylmethyl acetate] | 183 | 0.22 | 474 | 14,800 M^−1cm^−1 | 5,000 M^−1cm^−1 | 370 | 15,000 M^−1cm^−1 | 0.037 | 548 | 4.24 ± 10^−50 cm^4s/photon | 1.99 ± 10^−50 cm^4s/photon | 1.41 ± 10^−50 cm^4s/photon | 0.42 ± 10^−50 cm^4s/photon |  |  |  |  |
| CCOP(=O)(OCC)OCc1cc(=O)oc2cc(O)c(Br)cc12 [Compound 23, 6-Bromo-7-hydroxycoumarin-4-ylmethyl diethylphosphate] |  |  |  |  |  |  |  |  |  |  |  |  |  |  |  |  | about 1 μs |
